Reference: PubChem BioAssay (NCI)
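Cultured in 96-well plates, cells were exposed to test compound for 48 hours across five concentrations. GI50 = concentration required for 50% inhibition of growth. TGI: total growth inhibition.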

Columns and labels:
Test in all cases: growth of human tumour cells (NCI), 48 h
SW-620 colon = system: SW-620 colon
SF-295 CNS = system: SF-295 CNS
MOLT-4 leukemia = system: MOLT-4 leukemia
ACHN renal = system: ACHN renal
NCI-H23 lung = system: NCI-H23 lung
TK-10 renal = system: TK-10 renal
RPMI-8226 leukemia = system: RPMI-8226 leukemia
NCI-H522 lung = system: NCI-H522 lung
HT29 colon = system: HT29 colon
HOP-62 NSCLC = system: HOP-62 NSCLC

| Compound | GI50 (SW-620 colon) [µM] | TGI (SW-620 colon) [µM] | GI50 (SF-295 CNS) [µM] | TGI (SF-295 CNS) [µM] | GI50 (MOLT-4 leukemia) [µM] | TGI (MOLT-4 leukemia) [µM] | GI50 (ACHN renal) [µM] | TGI (ACHN renal) [µM] | GI50 (NCI-H23 lung) [µM] | TGI (NCI-H23 lung) [µM] | GI50 (TK-10 renal) [µM] | TGI (TK-10 renal) [µM] | GI50 (RPMI-8226 leukemia) [µM] | TGI (RPMI-8226 leukemia) [µM] | GI50 (NCI-H522 lung) [µM] | TGI (NCI-H522 lung) [µM] | TGI (HT29 colon) [µM] | TGI (HOP-62 NSCLC) [µM] | GI50 (HT29 colon) [µM] | GI50 (HOP-62 NSCLC) [µM] |
| --- | --- | --- | --- | --- | --- | --- | --- | --- | --- | --- | --- | --- | --- | --- | --- | --- | --- | --- | --- | --- |
| O=C(Oc1ccc(Cl)cc1Cl)c1ccccc1Nc1ccnc(C(F)(F)F)c1 | 4.59 | 32.5 | 15.6 | 37.2 | > 100 | > 100 | 13.2 | 27 | 3.51 | 13.6 | 4.05 | 23.9 | 2.39 | 6.29 | 4.61 | 36 | – | – | – | – |
| O=[N+]([O-])c1ccc(C(c2c[nH]c3ccccc23)c2c[nH]c3ccccc23)cc1 | – | 27.9 | – | > 100 | – | 40.9 | – | 21.5 | – | 21.4 | – | 28.5 | – | 13.4 | – | – | 31.8 | 30.3 | – | – |
| O=C(c1ccccc1)C(c1ccccc1)C1(O)C(=O)Nc2c(Cl)cc(Cl)cc21 (stereo not given) | – | 34.3 | – | 33.1 | – | 61.9 | – | 33.1 | – | 35.5 | – | 41.2 | – | 38.8 | – | 34.1 | 58 | – | – | – |
| CC(=O)n1c(COS(C)(=O)=O)nc2ccccc21 | – | > 100 | – | > 100 | – | – | – | > 100 | – | > 100 | – | > 100 | – | – | – | > 100 | > 100 | > 100 | – | – |
| COc1ccc(-c2nc3sc(C)cn3c2/C=C/C(=O)c2cc(OC)c(OC)c(OC)c2)cc1 | – | – | 4.42 | > 100 | – | – | 4.13 | > 100 | – | – | 5.55 | > 100 | – | – | 0.88 | 3.14 | > 100 | > 100 | 3.95 | 4.28 |
| Cc1ccc(OCC(=O)N2N=C(c3ccccc3)CC2(O)c2ccccc2)cc1 (stereo not given) | – | > 100 | – | > 100 | – | > 100 | – | > 100 | – | > 100 | – | > 100 | – | > 100 | – | > 100 | – | 46 | – | – |
| O=C1C(=O)N(C(=O)c2ccc(Cl)c(Cl)c2)c2ccccc21 | – | > 100 | – | > 100 | – | > 100 | – | > 100 | – | > 100 | – | > 100 | – | > 100 | – | – | > 100 | – | – | – |
| Cc1ccc(-[n+]2c3cc(N)c(C)cc3nc3cc(C)c(Nc4ccccc4)cc32)cc1 | 0.0708 | 1.08 | 0.0646 | 0.181 | 0.244 | 1.69 | 0.107 | 1.17 | – | – | 0.148 | 1.04 | – | – | 0.249 | 0.788 | 0.345 | 0.397 | 0.0377 | 0.0472 |
| O=C(O)c1c(-c2cccc3ccccc23)sc(-c2cccc3ccccc23)c1C(=O)O | – | > 100 | – | > 100 | – | 85.7 | – | > 100 | – | > 100 | – | > 100 | – | > 100 | – | > 100 | > 100 | – | – | – |
| CC1=C(C(=O)Nc2ccccc2C)C(c2ccccc2)C(C(=O)Nc2ccccc2C)=C(C)N1 | – | > 100 | – | > 100 | – | 53 | – | > 100 | – | > 100 | – | > 100 | – | – | – | > 100 | > 100 | > 100 | – | – |
| Nc1ccn(CCOC(=O)c2ccccc2)c(=O)n1 | – | > 100 | – | > 100 | – | – | – | > 100 | – | – | – | > 100 | – | > 100 | – | > 100 | > 100 | > 100 | – | – |
| C=C1C(=O)O[C@H]2[C@H]1CC/C(Cn1cc(CNC(=O)Cc3cn(C(=O)c4ccc(Cl)cc4)c4ccc(OC)cc34)nn1)=C\CC[C@@]1(C)O[C@@H]21 | 0.932 | 2.65 | 5.78 | 25.7 | 2 | 6.16 | 1.92 | 3.71 | 2.58 | 6.7 | 1.77 | 3.24 | 1.59 | 5.21 | – | – | 3.5 | 15.1 | 1.67 | 3.91 |
| COc1cc2c3c(n(C)c(=O)c2cc1OC)-c1cc2c(cc1/C3=C\CCCCCN)OCO2 | – | – | 0.887 | > 42.4 | – | – | 0.289 | 9.28 | 1.62 | 13.3 | – | 22.5 | 0.1 | 1.38 | 1.23 | > 100 | > 100 | > 45.9 | 1.17 | 0.612 |
| CCC[CH2][Sn-]([CH2]CCC)([CH2]CCC)[O]c1cc(Cl)c(Cl)cc1Cl | 0.207 | 0.44 | 0.263 | 0.732 | 0.167 | 0.545 | 0.19 | 0.339 | 0.23 | 1.17 | 0.287 | 0.957 | 0.137 | 0.853 | – | – | 0.404 | 0.507 | 0.162 | 0.228 |
| COc1cccc2cc(C)c(C(=O)c3ccccc3)nc12 | – | > 100 | – | > 100 | – | > 100 | – | > 100 | – | > 100 | – | > 100 | – | > 100 | – | > 100 | – | > 100 | – | – |
| O=C(Nc1ccc(N2CCNCC2)cc1)c1[nH]ncc1Nc1ncnc2sc3c(c12)CCC3 | 0.157 | 0.756 | 0.359 | 1.95 | 0.0835 | 1.07 | 0.181 | 1.16 | 0.268 | 1.85 | 0.41 | 2.05 | 0.67 | 3.58 | – | – | – | 2.79 | – | 0.621 |
| CC1=C(C)C(=O)c2c(cc3ccc4ccccc4n23)C1=O | – | > 100 | – | > 100 | – | > 100 | – | > 100 | – | > 100 | – | > 100 | – | > 100 | – | – | > 100 | – | – | – |
| COc1ccc2cc(C(=O)/C=C/c3cc(OC)c(OC)c(OC)c3)ccc2c1 | 1.51 | 6.91 | 13 | > 50 | 2.91 | > 50 | 7.17 | 18.2 | 1.77 | 11.2 | 9.61 | 31.4 | 6.84 | > 50 | – | – | 19.7 | 20.8 | 2.72 | 9.88 |
